Here are results for one compound from paper PMC10102027, “Helquat dyes targeting G-quadruplexes as a new class of anti-HIV-1 inhibitors” (Scientific Reports, 2023).

The subject of assay [1] is ss G4 LTR wild-type oligonucleotide. In words: Light-up experiment, ss G4 LTR. It is filed as binding, HIV-1. To be noted: 4 μM compound. Here is the method:
There are many small molecular probes for specific G4 visualization in cells. […] To distinguish specifically the potential light-up triggered by helquat binding to G-quadruplexes in the HIV-1 LTR, we employed two control oligonucleotides, both unable to form G-quadruplexes (Fig. 6A): an LTR oligonucleotide sequence with two point mutations precluding G4 formation and an LTR oligonucleotide with a scrambled sequence (both adopted from[41]).
The selected compounds were incubated in the presence of the G4 LTR wild-type (wt) oligonucleotide, the G4 LTR M4 + M5 oligonucleotide containing mutations that disabled G-quadruplex formation (described previously[41]), and the G4 LTR scrambled-sequence oligonucleotide, or the buffer-only control. The compounds were tested at a compound:oligonucleotide ratio of 2:1 (4 μM compounds and 2 μM oligonucleotide) in PBS in a 384-well plate. Emission spectra were measured after excitation at 280 nm in a Tecan Infinite M1000 plate reader. The fluorescent image of the plate was taken with the Bio-Rad ChemiDoc imaging system after UV-light excitation. The Light-up titration experiment was performed similarly as described above with the exception that 4 μM compound 12 was incubated with serial dilutions (1:1) of oligonucleotides (ss G4 LTR wild type, G4 c-myc and G4 c-kit1) spanning final concentrations 2 to 0.002 μM. The excitation at 280 nm and emission at 600 nm were used to monitor the Light-up.

The test system of a further assay is ds G4 LTR. In words: Light-up experiment, ds G4 LTR. It is filed as binding, HIV-1. To be noted: 4 μM compound, excitation 280 nm. Here is the method:
(§1) The intensity of fluorescence measured after the incubation with both oligonucleotides incompetent of G-quadruplex formation was almost identical, with the maximum intensity 2.5 times lower than that of the G-quadruplex-forming oligonucleotide (wt). […] To examine the specificity of ligand 12, we have repeated the light-up experiment with single-stranded G4 LTR in parallel with double-stranded G4 LTR and additional G-quadruplexes (c-myc, c-kit1 and h-telo). […] To further evaluate the specificity of ligand 12, we performed the light-up titration experiment incubating compound 12 with serial dilutions (1:1) of oligonucleotides (ss G4 LTR wild type, G4 c-myc and c-kit1) spanning final concentrations 2 to 0.002 μM (Supplement Fig. S3B). […] This can indicate a slight preference of ligand 12 for ss G4 LTR than for c-myc at lower oligonucleotide concentrations.
(§2) The selected compounds were incubated in the presence of the G4 LTR wild-type (wt) oligonucleotide, the G4 LTR M4 + M5 oligonucleotide containing mutations that disabled G-quadruplex formation (described previously[41]), and the G4 LTR scrambled-sequence oligonucleotide, or the buffer-only control. The compounds were tested at a compound:oligonucleotide ratio of 2:1 (4 μM compounds and 2 μM oligonucleotide) in PBS in a 384-well plate. Emission spectra were measured after excitation at 280 nm in a Tecan Infinite M1000 plate reader. […]

A further assay has as its system c-myc G-quadruplex. In words: Light-up experiment, c-myc. It is filed as binding. To be noted: 4 μM compound, excitation 280 nm. Here is the method: as §1, §2
The test system of another assay is c-kit1 G-quadruplex. In words: Light-up experiment, c-kit1. It is filed as binding. To be noted: 4 μM compound, excitation 280 nm. Here is the method: as §1, §2
The test system of the next assay is h-telo G-quadruplex. In words: Light-up experiment, h-telo. Format: binding. The conditions noted are these: 4 μM compound, excitation 280 nm. Here is the method:
as §1, §2

The mark [2] stands for this setting: 2 μM oligonucleotide, excitation 280 nm.

As for `Cn1cc(/C=C/c2cc(/C=C/c3cn(C)c4ccccc34)[n+]3c(c2)-c2c(ccc4c2-c2cccc[n+]2CCC4)CCC3)c2ccccc21` [Compound 12], the fluorescence light-up result in assay [1] (setting [2]) is “strong and specific fluorescence”; in the assay on ds G4 LTR it was “very weak fluorescence”; in the assay with c-myc G-quadruplex, “strong fluorescence”; with c-kit1 G-quadruplex, “strong fluorescence”; in the assay with h-telo G-quadruplex, “low fluorescence”. For the same compound, the “maximum fluorescence intensity with non-G4-forming oligonucleotides (M4 + M5, scrambled), times lower than with wt” value in assay [1] (setting [2]) was found to be 2.5 times. The “fluorescence in light-up titration, ss G4 LTR versus c-myc and c-kit1” value in assay [1] (oligonucleotide concentration of 0.5 μM and below, emission 600 nm) was “stronger fluorescence after incubation with ss G4 LTR”.
